From US4599424A, “5-substituted thiadiazole ureas and their use as herbicides” (priority 1979, dated 1986)

Key:
Corn (CN) [1] = test: Post-emergence herbicide test, corn; format: in vivo, Zea mays; details: two weeks
Experimental: (§1) All crop and weed species were planted individually in 3" plastic pots containing potting soil. Four seeds each of corn, cotton, and snapbeans were seeded to a depth equal to the diameter of the seed. All other species were surface seeded and sprinkled with screened soil in an amount sufficient to cover the seed. Immediately after planting, all pots were watered by sub-irrigation in greenhouse trays. Pots for the pre-emergence phase were seeded one day before treatment.
(§2) Planting dates for the post-emergence phase were varied so that all seedlings would reach the desired stage of development simultaneously. The proper stage of seedling development for treatment in the post-emergence phase is as follows:
(§3) Compounds were tested at rates of application equivalent to 8 lbs. of actual compound per acre in a spray volume of 38 gallons per acre. Spray hood constants required to deliver the above volume are as follows:
(§4) Formulations for spray applications were prepared in 50 ml volumes with the following three components:
(§5) Formulations for the 4 lbs/acre rate were prepared by adjusting the amount of active ingredient accordingly.
(§6) Spray applications were made in a hood containing a removable belt and fixed spray nozzle. For passage through the spray hood, one pot of each specie (pre-emergence phase) was placed on the rear half of the flat. Treatments were removed to the greenhouse after spraying. Watering during the observation period was done only by sub-irrigation.
(§7) Two weeks after treatment, pre- and post-emergence injury or control was visually rated, and the results were as shown in the following tables. Pre-emergence data are provided in TABLE III and post-emergence data are provided in TABLE IV, for compounds having the formula illustrated in TABLE I. Correspondingly, pre-emergence and post-emergence data, respectively, are set forth in TABLES V AND VI, for compounds having the formula illustrated in TABLE II.

[2] = tested on: a variety of crops and weed species; test: Pre- and post-emergence herbicide tests, overall assessment of TABLES III-VI; format: in vivo; details: from data of TABLES III-VI
Experimental: as §1, §2, §3, §7
Typical of such compounds are: 1, 2, 5, 26, 36, and 37.

Cotton (CT) [3] = test: Post-emergence herbicide test, cotton; format: in vivo, Gossypium hirsutum var. DPL smooth leaf; details: two weeks
Experimental: (§8) Cotton (CT)--Gossypium hirsutum var. DPL smooth leaf
as §1, §2
cotton: first true leaf 1" in length; expanded cotyledons.
(§9) Spray hood constants required to deliver the above volume are as follows:
as §4, §5, §6, §7

Bean (BN) [4] = test: Pre-emergence herbicide test, bean; format: in vivo, Phaseolus vulgaris var. Black Valentine; details: two weeks
Experimental: (§10) Bean (BN)--Phaseolus vulgaris var. Black Valentine
as §1, §3, §4, §5, §6, §7

Crabgrass (CG) [5] = test: Post-emergence herbicide test, crabgrass; format: in vivo, Digitaria sanguinalis; details: two weeks
Experimental: (§11) Crabgrass (CG)--Digitaria sanguinalis
as §1, §2, §9
(§12) Formulations for spray applications were prepared in 50 ml volumes with the following three components: […]
as §6, §7

Corn (CN) [6] = test: Pre-emergence herbicide test, corn; format: in vivo, Zea mays; details: two weeks
Experimental: as §1, §3, §4, §5, §6, §7

Johnson grass (JG) [7] = test: Pre-emergence herbicide test, Johnson grass; format: in vivo, Sorgum helepense; details: two weeks
Experimental: (§13) Johnson grass (JG)--Sorgum helepense
as §1, §9, §12, §6, §7

Turnip (TP) [8] = test: Pre-emergence herbicide test, turnip; format: in vivo, Brassica sp.; details: two weeks
Experimental: (§14) Turnip (TP)--Brassica sp.
as §1, §9, §12, §6, §7

Turnip (TP) [9] = test: Post-emergence herbicide test, turnip; format: in vivo, Brassica sp.; details: two weeks
Experimental: as §14, §1, §2
(§15) Pigweed and turnips: 1 or 2 true leaves above visible cotyledons.
as §9, §12, §6, §7

Barnyard grass (BG) [10] = test: Post-emergence herbicide test, barnyard grass; format: in vivo, Echinochloa crus-galli; details: two weeks
Experimental: (§16) Barnyard grass (BG)--Echinochloa crus-galli
as §1, §2, §9, §12, §6, §7

Bean (BN) [11] = test: Post-emergence herbicide test, bean; format: in vivo, Phaseolus vulgaris var. Black Valentine; details: two weeks
Experimental: as §10, §1, §2
Beans: primary leaves expanded, growing point at primary leaf nodes.
as §9, §4, §5, §6, §7

Amaranth pigweed (PW) [12] = test: Pre-emergence herbicide test, amaranth pigweed; format: in vivo, Amaranthus retroflexus; details: two weeks
Experimental: (§17) Amaranth pigweed (PW)--Amaranthus retroflexus
as §1, §3, §4, §5, §6, §7

Johnson grass (JG) [13] = test: Post-emergence herbicide test, Johnson grass; format: in vivo, Sorgum helepense; details: two weeks
Experimental: as §13, §1, §2, §9, §12, §6, §7

Barnyard grass (BG) [14] = test: Pre-emergence herbicide test, barnyard grass; format: in vivo, Echinochloa crus-galli; details: two weeks
Experimental: as §16, §1, §3, §4, §5, §6, §7

Cotton (CT) [15] = test: Pre-emergence herbicide test, cotton; format: in vivo, Gossypium hirsutum var. DPL smooth leaf; details: two weeks
Experimental: as §8, §1, §3, §4, §5, §6, §7

Amaranth pigweed (PW) [16] = test: Post-emergence herbicide test, amaranth pigweed; format: in vivo, Amaranthus retroflexus; details: two weeks
Experimental: as §17, §1, §2, §15, §3, §4, §5, §6, §7

[17] = tested on: Yellow foxtail grass (YF); test: Pre-emergence herbicide test, yellow foxtail grass; format: in vivo, Setarin glauca; details: two weeks
Experimental: (§18) Yellow foxtail grass (YF)--Setarin glauca
as §1, §9, §12, §6, §7

[18] = tested on: Yellow foxtail grass (YF); test: Post-emergence herbicide test, yellow foxtail grass; format: in vivo, Setarin glauca; details: two weeks
Experimental: as §18, §1, §2, §3, §4, §5, §6, §7

Crabgrass (CG) [19] = test: Pre-emergence herbicide test, crabgrass; format: in vivo, Digitaria sanguinalis; details: two weeks
Experimental: as §11, §1, §9, §4, §5, §6, §7

For CCN(C(=O)NC)c1nnc(C(F)(F)F)s1 [Example 37], the pest or weed control at 4483.4 g/ha (Corn (CN) [1]; Zea mays, post-emergence, 336 h, 4 lb/acre) was 30% and the “herbicidal effectiveness and selectivity (in words)” value [2] was “extremely effective”.

For CNC(=O)N(C)c1nnc(C(C)(C)C)s1 [Example 42], the “POST-EMERGENCE ACTIVITY, % CONTROL” value (Corn (CN) [1]; 2 lb/acre) was 70%, the “POST-EMERGENCE ACTIVITY, % CONTROL” value (Corn (CN) [1]; 4 lb/acre) was 70% and the “POST-EMERGENCE ACTIVITY, % CONTROL” value (Corn (CN) [1]; 8 lb/acre) was 100%. The “POST-EMERGENCE ACTIVITY, % CONTROL” value (Cotton (CT) [3]; 2 lb/acre) was 100%, the “POST-EMERGENCE ACTIVITY, % CONTROL” value (Cotton (CT) [3]; 4 lb/acre) was 100% and the “POST-EMERGENCE ACTIVITY, % CONTROL” value (Cotton (CT) [3]; 8 lb/acre) was 100%. For the same compound, the “PRE-EMERGENCE ACTIVITY, % CONTROL” value (Bean (BN) [4]; 2 lb/acre) was 40%, the “PRE-EMERGENCE ACTIVITY, % CONTROL” value (Bean (BN) [4]; 4 lb/acre) was 90% and the “PRE-EMERGENCE ACTIVITY, % CONTROL” value (Bean (BN) [4]; 8 lb/acre) was 100%. For the same compound, the “POST-EMERGENCE ACTIVITY, % CONTROL” value (Crabgrass (CG) [5]; 2 lb/acre) was 40%, the “POST-EMERGENCE ACTIVITY, % CONTROL” value (Crabgrass (CG) [5]; 4 lb/acre) was 70% and the “POST-EMERGENCE ACTIVITY, % CONTROL” value (Crabgrass (CG) [5]; 8 lb/acre) was 100%. For the same compound, the “PRE-EMERGENCE ACTIVITY, % CONTROL” value (Corn (CN) [6]; 2 lb/acre) was 0%, the “PRE-EMERGENCE ACTIVITY, % CONTROL” value (Corn (CN) [6]; 4 lb/acre) was 60% and the “PRE-EMERGENCE ACTIVITY, % CONTROL” value (Corn (CN) [6]; 8 lb/acre) was 90%. For the same compound, the “PRE-EMERGENCE ACTIVITY, % CONTROL” value (Johnson grass (JG) [7]; 2 lb/acre) was 70%, the “PRE-EMERGENCE ACTIVITY, % CONTROL” value (Johnson grass (JG) [7]; 4 lb/acre) was 90% and the “PRE-EMERGENCE ACTIVITY, % CONTROL” value (Johnson grass (JG) [7]; 8 lb/acre) was 100%. The “PRE-EMERGENCE ACTIVITY, % CONTROL” value (Turnip (TP) [8]; 2 lb/acre) was 100%, the “PRE-EMERGENCE ACTIVITY, % CONTROL” value (Turnip (TP) [8]; 4 lb/acre) was 90% and the “PRE-EMERGENCE ACTIVITY, % CONTROL” value (Turnip (TP) [8]; 8 lb/acre) was 100%. For the same compound, the “POST-EMERGENCE ACTIVITY, % CONTROL” value (Turnip (TP) [9]; 2 lb/acre) was 100%, the “POST-EMERGENCE ACTIVITY, % CONTROL” value (Turnip (TP) [9]; 4 lb/acre) was 100% and the “POST-EMERGENCE ACTIVITY, % CONTROL” value (Turnip (TP) [9]; 8 lb/acre) was 100%. For the same compound, the “POST-EMERGENCE ACTIVITY, % CONTROL” value (Barnyard grass (BG) [10]; 2 lb/acre) was 90%, the “POST-EMERGENCE ACTIVITY, % CONTROL” value (Barnyard grass (BG) [10]; 4 lb/acre) was 90% and the “POST-EMERGENCE ACTIVITY, % CONTROL” value (Barnyard grass (BG) [10]; 8 lb/acre) was 100%. The “POST-EMERGENCE ACTIVITY, % CONTROL” value (Bean (BN) [11]; 2 lb/acre) was 80%, the “POST-EMERGENCE ACTIVITY, % CONTROL” value (Bean (BN) [11]; 4 lb/acre) was 100% and the “POST-EMERGENCE ACTIVITY, % CONTROL” value (Bean (BN) [11]; 8 lb/acre) was 100%. The “PRE-EMERGENCE ACTIVITY, % CONTROL” value (Amaranth pigweed (PW) [12]; 2 lb/acre) was 100%, the “PRE-EMERGENCE ACTIVITY, % CONTROL” value (Amaranth pigweed (PW) [12]; 4 lb/acre) was 100% and the “PRE-EMERGENCE ACTIVITY, % CONTROL” value (Amaranth pigweed (PW) [12]; 8 lb/acre) was 100%. The “POST-EMERGENCE ACTIVITY, % CONTROL” value (Johnson grass (JG) [13]; 2 lb/acre) was 70%, the “POST-EMERGENCE ACTIVITY, % CONTROL” value (Johnson grass (JG) [13]; 4 lb/acre) was 90% and the “POST-EMERGENCE ACTIVITY, % CONTROL” value (Johnson grass (JG) [13]; 8 lb/acre) was 100%. The “PRE-EMERGENCE ACTIVITY, % CONTROL” value (Barnyard grass (BG) [14]; 2 lb/acre) was 80%, the “PRE-EMERGENCE ACTIVITY, % CONTROL” value (Barnyard grass (BG) [14]; 4 lb/acre) was 90% and the “PRE-EMERGENCE ACTIVITY, % CONTROL” value (Barnyard grass (BG) [14]; 8 lb/acre) was 90%. The “PRE-EMERGENCE ACTIVITY, % CONTROL” value (Cotton (CT) [15]; 2 lb/acre) was 30%, the “PRE-EMERGENCE ACTIVITY, % CONTROL” value (Cotton (CT) [15]; 4 lb/acre) was 70% and the “PRE-EMERGENCE ACTIVITY, % CONTROL” value (Cotton (CT) [15]; 8 lb/acre) was 90%. The “POST-EMERGENCE ACTIVITY, % CONTROL” value (Amaranth pigweed (PW) [16]; 2 lb/acre) was 100%, the “POST-EMERGENCE ACTIVITY, % CONTROL” value (Amaranth pigweed (PW) [16]; 4 lb/acre) was 100% and the “POST-EMERGENCE ACTIVITY, % CONTROL” value (Amaranth pigweed (PW) [16]; 8 lb/acre) was 100%. The “PRE-EMERGENCE ACTIVITY, % CONTROL” value ([17]; 2 lb/acre) was 90%, the “PRE-EMERGENCE ACTIVITY, % CONTROL” value ([17]; 4 lb/acre) was 80% and the “PRE-EMERGENCE ACTIVITY, % CONTROL” value ([17]; 8 lb/acre) was 90%. For the same compound, the “POST-EMERGENCE ACTIVITY, % CONTROL” value ([18]; 2 lb/acre) was 90%, the “POST-EMERGENCE ACTIVITY, % CONTROL” value ([18]; 4 lb/acre) was 90% and the “POST-EMERGENCE ACTIVITY, % CONTROL” value ([18]; 8 lb/acre) was 100%. For the same compound, the “PRE-EMERGENCE ACTIVITY, % CONTROL” value (Crabgrass (CG) [19]; 2 lb/acre) was 90%, the “PRE-EMERGENCE ACTIVITY, % CONTROL” value (Crabgrass (CG) [19]; 4 lb/acre) was 90% and the “PRE-EMERGENCE ACTIVITY, % CONTROL” value (Crabgrass (CG) [19]; 8 lb/acre) was 90%.
